# Values of other authors, collected in PMC8513935.
# Assay: experimental, compiled by the authors from the literature (the ESI cites the sources)
# Details: 2-Methylpropan-1-ol, 25 C
row,"log K of transfer, gas to solvent",Structure (SMILES)
1,0.95 log10 K,C=CC

# Same assay, conditions: 2-Methylpropan-2-ol, 25 C
row,"log K of transfer, gas to solvent",Structure (SMILES)
1,0.99 log10 K,C=CC

# Same assay, conditions: 3-Methylbutan-1-ol, 25 C
row,"log K of transfer, gas to solvent",Structure (SMILES)
1,0.963 log10 K,C=CC

# Same assay, conditions: Benzene, 25 C
row,Structure (SMILES),"log K of transfer, gas to solvent"
1,CCCC(C)=O,3.77 log10 K

# Same assay, conditions: Butan-1-ol, 25 C
row,"log K of transfer, gas to solvent",Structure (SMILES)
1,1.03 log10 K,C=CC

# Same assay, conditions: Butan-2-ol, 25 C
row,"log K of transfer, gas to solvent",Structure (SMILES)
1,0.97 log10 K,C=CC

# Same assay, conditions: Butanone, 25 C
row,"log K of transfer, gas to solvent",Structure (SMILES)
1,1.13 log10 K,C=CC

# Same assay, conditions: Butyronitrile, 25 C
row,"log K of transfer, gas to solvent",Structure (SMILES)
1,2.87 log10 K,C=CCCCCC

# Same assay, conditions: CCl4, 25 C
row,"log K of transfer, gas to solvent",Structure (SMILES)
1,5.42 log10 K,Cc1cc(C)cc(O)c1
2,1.35 log10 K,C=CC

row,Structure (SMILES),"log K of transfer, gas to solvent"
1,CCCC(C)=O,3.52 log10 K

# Same assay, conditions: Chlorobenzene, 25 C
row,Structure (SMILES),"log K of transfer, gas to solvent"
1,CCCC(C)=O,3.87 log10 K
2,Cc1cc(C)cc(O)c1,5.86 log10 K

# Same assay, conditions: Chloroform, 25 C
row,"log K of transfer, gas to solvent",Structure (SMILES)
1,4.28 log10 K,C1CCOCC1

# Same assay, conditions: Cyclohexane, 25 C
row,"log K of transfer, gas to solvent",Structure (SMILES)
1,3.23 log10 K,C1CCOCC1
2,3.15 log10 K,CCC(=O)CC

row,Structure (SMILES),"log K of transfer, gas to solvent"
1,CCCC(C)=O,2.98 log10 K

# Same assay, conditions: Hexadecane, 25 C
row,"log K of transfer, gas to solvent",Structure (SMILES)
1,3.02 log10 K,C1CCOCC1
2,4.85 log10 K,Cc1cc(C)cc(O)c1
3,0.946 log10 K,C=CC
4,2.81 log10 K,CCC(=O)CC
5,3.06 log10 K,C=CCCCCC

row,Structure (SMILES),"log K of transfer, gas to solvent"
1,CCCC(C)=O,2.75 log10 K

# Same assay, conditions: Hexane, 25 C
row,"log K of transfer, gas to solvent",Structure (SMILES)
1,4.96 log10 K,Cc1cc(C)cc(O)c1
2,1.29 log10 K,C=CC

# Same assay, conditions: Methanol, 25 C
row,Structure (SMILES),"log K of transfer, gas to solvent"
1,CCCC(C)=O,3.58 log10 K
2,C=CC,0.95 log10 K

# Same assay, conditions: Octan-1-ol, 25 C
row,"log K of transfer, gas to solvent",Structure (SMILES)
1,3.22 log10 K,C1CCOCC1
2,3.2 log10 K,CCC(=O)CC

row,Structure (SMILES),"log K of transfer, gas to solvent"
1,CCCC(C)=O,3.19 log10 K

# Same assay, conditions: Pentan-1-ol, 25 C
row,"log K of transfer, gas to solvent",Structure (SMILES)
1,0.97 log10 K,C=CC
2,2.88 log10 K,C=CCCCCC

# Same assay, conditions: Propan-1-ol, 25 C
row,"log K of transfer, gas to solvent",Structure (SMILES)
1,0.99 log10 K,C=CC

# Same assay, conditions: Propan-2-ol, 25 C
row,"log K of transfer, gas to solvent",Structure (SMILES)
1,0.97 log10 K,C=CC

# Same assay, conditions: Propionitrile, 25 C
row,"log K of transfer, gas to solvent",Structure (SMILES)
1,2.78 log10 K,C=CCCCCC

# Same assay, conditions: Toluene, 25 C
row,Structure (SMILES),"log K of transfer, gas to solvent"
1,CCCC(C)=O,3.68 log10 K

# Same assay, conditions: Water, 25 C
row,"log K of transfer, gas to solvent",Structure (SMILES)
1,2.31 log10 K,C1CCOCC1
2,4.6 log10 K,Cc1cc(C)cc(O)c1
3,-0.97 log10 K,C=CC
4,2.5 log10 K,CCC(=O)CC
5,-1.22 log10 K,C=CCCCCC

row,Structure (SMILES),"log K of transfer, gas to solvent"
1,CCCC(C)=O,2.58 log10 K

# Assay: log P octanol/water from commercial databases, averaged (the ESI)
# Details: Octanol (wet), 25 C
row,"log K of transfer, water to solvent",Structure (SMILES)
1,0.795 log10 K,C1CCOCC1
2,2.35 log10 K,Cc1cc(C)cc(O)c1
3,1.77 log10 K,C=CC
4,0.82 log10 K,CCC(=O)CC
5,3.99 log10 K,C=CCCCCC

row,Structure (SMILES),"log K of transfer, water to solvent"
1,CCCC(C)=O,0.84 log10 K

# Assay: derived by the authors as gas->solvent minus gas->water (a hypothetical dry solvent; the ESI), not a two-phase measurement
# Details: 2-Methylpropan-1-ol, 25 C
row,"log K of transfer, water to solvent",Structure (SMILES)
1,1.92 log10 K,C=CC

# Same assay, conditions: 2-Methylpropan-2-ol, 25 C
row,"log K of transfer, water to solvent",Structure (SMILES)
1,1.96 log10 K,C=CC

# Same assay, conditions: 3-Methylbutan-1-ol, 25 C
row,"log K of transfer, water to solvent",Structure (SMILES)
1,1.93 log10 K,C=CC

# Same assay, conditions: Benzene, 25 C
row,Structure (SMILES),"log K of transfer, water to solvent"
1,CCCC(C)=O,1.19 log10 K

# Same assay, conditions: Butan-1-ol, 25 C
row,"log K of transfer, water to solvent",Structure (SMILES)
1,2 log10 K,C=CC

# Same assay, conditions: Butan-2-ol, 25 C
row,"log K of transfer, water to solvent",Structure (SMILES)
1,1.94 log10 K,C=CC

# Same assay, conditions: Butanone, 25 C
row,"log K of transfer, water to solvent",Structure (SMILES)
1,2.1 log10 K,C=CC

# Same assay, conditions: Butyronitrile, 25 C
row,"log K of transfer, water to solvent",Structure (SMILES)
1,4.09 log10 K,C=CCCCCC

# Same assay, conditions: CCl4, 25 C
row,"log K of transfer, water to solvent",Structure (SMILES)
1,0.82 log10 K,Cc1cc(C)cc(O)c1
2,2.32 log10 K,C=CC

row,Structure (SMILES),"log K of transfer, water to solvent"
1,CCCC(C)=O,0.94 log10 K

# Same assay, conditions: Chlorobenzene, 25 C
row,Structure (SMILES),"log K of transfer, water to solvent"
1,CCCC(C)=O,1.29 log10 K
2,Cc1cc(C)cc(O)c1,1.26 log10 K

# Same assay, conditions: Chloroform, 25 C
row,"log K of transfer, water to solvent",Structure (SMILES)
1,1.97 log10 K,C1CCOCC1

# Same assay, conditions: Cyclohexane, 25 C
row,"log K of transfer, water to solvent",Structure (SMILES)
1,0.92 log10 K,C1CCOCC1
2,0.65 log10 K,CCC(=O)CC

row,Structure (SMILES),"log K of transfer, water to solvent"
1,CCCC(C)=O,0.4 log10 K

# Same assay, conditions: Hexadecane, 25 C
row,"log K of transfer, water to solvent",Structure (SMILES)
1,0.707 log10 K,C1CCOCC1
2,0.256 log10 K,Cc1cc(C)cc(O)c1
3,1.92 log10 K,C=CC
4,0.311 log10 K,CCC(=O)CC
5,4.28 log10 K,C=CCCCCC

row,Structure (SMILES),"log K of transfer, water to solvent"
1,CCCC(C)=O,0.175 log10 K

# Same assay, conditions: Hexane, 25 C
row,"log K of transfer, water to solvent",Structure (SMILES)
1,0.362 log10 K,Cc1cc(C)cc(O)c1
2,2.25 log10 K,C=CC

# Same assay, conditions: Methanol, 25 C
row,Structure (SMILES),"log K of transfer, water to solvent"
1,CCCC(C)=O,0.999 log10 K
2,C=CC,1.92 log10 K

# Same assay, conditions: Octan-1-ol(dry), 25 C
row,"log K of transfer, water to solvent",Structure (SMILES)
1,0.91 log10 K,C1CCOCC1
2,0.7 log10 K,CCC(=O)CC

row,Structure (SMILES),"log K of transfer, water to solvent"
1,CCCC(C)=O,0.61 log10 K

# Same assay, conditions: Pentan-1-ol, 25 C
row,"log K of transfer, water to solvent",Structure (SMILES)
1,1.94 log10 K,C=CC
2,4.1 log10 K,C=CCCCCC

# Same assay, conditions: Propan-1-ol, 25 C
row,"log K of transfer, water to solvent",Structure (SMILES)
1,1.96 log10 K,C=CC

# Same assay, conditions: Propan-2-ol, 25 C
row,"log K of transfer, water to solvent",Structure (SMILES)
1,1.94 log10 K,C=CC

# Same assay, conditions: Propionitrile, 25 C
row,"log K of transfer, water to solvent",Structure (SMILES)
1,4 log10 K,C=CCCCCC

# Same assay, conditions: Toluene, 25 C
row,Structure (SMILES),"log K of transfer, water to solvent"
1,CCCC(C)=O,1.1 log10 K
